{
  "source": "patent US9932627B2",
  "about": "“Method for determination of the length of the G-tail sequence and kit for the method” (HIROSHIMA UNIVERSITY, priority 2005, dated 2018)",
  "key": {"[1]": {"test_system": "SiHa cancer cell", "test": "G tail length measurement by G tail HPA on nondenatured genomic DNA of treated cells", "format": "cell-based, human", "settings": "treated with telomestatin (5 μm) for 48 hours, nondenatured DNA 5 μg, control C = 220", "description": "(§1) The hydrolysis of the AE in an unhybridized probe was performed by charging 300 μL of a hydrolysis buffer (0.6 mol/L tetrasodium borate buffer containing 50 mL/L of Triton X-100, pH 8.5) into each reaction tube, stirring the mixture vigorously with a Vortex mixer, and incubating the mixture at 60° C. for 10 minutes. The AE in the hybridized probe was not hydrolyzed under the above-described condition. These tubes were cooled on ice for 1 minute or more, and the chemiluminescence in each tube was measured with a luminometer (trade name: Leader 1, manufactured by Gene Probe Inc.) for 2 seconds.\nFor the confirmation of nondenatured genomic DNA dose response by the measuring method according to the invention, SiHa cancer cell line-derived nondenatured genomic DNA samples in various amounts (1 μg, 3 μg, 5 μg, 10 μg and 20 μg) and the AE-labeled G tail HPA probe in an amount of 3×10^6 rlu were hybridized with each other. Specifically for detection of the telomere 3′-tail (G tail) in genomic DNA, the total amount of the DNA solution in a Falcon 352053 tube (trade name) was adjusted to 100 μL with sterile water or a TE buffer (10 mM Tris/HCl, 1 mM EDTA, pH 8.0). […]"}, "[2]": {"test_system": "MCF-7 cancer cell", "test": "Entire telomere length by telomere HPA on denatured DNA (JP 2001-95586, Comparative Example)", "format": "cell-based", "settings": "treated with telomestatin (5 μm) for 48 hours, denatured DNA 0.5 μg, control C = 4000", "description": "(§2) The dominant negative allelic gene (TRF2^ΔBΔM) was infected to various cells (HeLa cancer cell, SiHa cancer cell, MCF-7 cancer cell, MRC-5-hTERT normal fibroblast, and 90p normal mammary epithelial cell) according to a method similar to that in <9-3>; The nondenatured DNA was isolated from each cell (HeLa cancer cell, SiHa cancer cell, MCF-7 cancer cell, MRC-5-hTERT normal fibroblast, and 90p normal mammary epithelial cell) according to a method similar to that in <4-2>; The nondenatured DNA (5 μg) was used in the G tail measuring method according to the present invention for measurement of the G tail length; and, as a Comparative Example, the measuring method described in Japanese Unexamined Patent Publication No. 2001-95586 was applied to each denatured DNA (0.5 μg) for measurement of the entire telomere length. ExoI treatment was performed similarly to the method described in <4-3> and culture of the cells used, similarly to the method described in <9-2>.\n(§3) FIG. 11a is a graph showing the results of measuring G tail by the measuring method according to the invention. FIG. 11b is a graph showing the results of measuring the total telomere length by the measuring method described in Japanese Unexamined Patent Publication No. 2001-95586 as a Comparative Example. In FIG. 11a, “C” represents a control; “T” represents a cell treated with a G tail-shortening medicine telomestatin (5 μm) for 48 hours; represents a ExoI-treated cell; and − represents an untreated cell. […] In FIG. 11b, “C” represents a control; and “T” represents a cell previously treated with a G tail-shortening medicine telomestatin (5 μm) for 48 hours.\n(§4) Thus apparently in the measuring method described in Patent Document 1 (Japanese Unexamined Patent Publication No. 2001-95586), the G tail length gives signal intensity only at a noise level within the range of the operation and measurement error, prohibiting G tail measurement. Then, the values on the ordinate in FIG. 11a were converted to average G tail lengths by using the calibration curve shown in FIG. 2 and the values on the ordinate in FIG. 11b to the entire telomere lengths, to give the following results shown in Table 4."}, "[3]": {"test_system": "HeLa cancer cell", "test": "Entire telomere length by telomere HPA on denatured DNA (JP 2001-95586, Comparative Example)", "format": "cell-based", "settings": "treated with telomestatin (5 μm) for 48 hours, denatured DNA 0.5 μg, control C = 4700", "description": "as §2, §3, §4"}, "[4]": {"test_system": "MRC-5-hTERT normal fibroblast", "test": "Entire telomere length by telomere HPA on denatured DNA (JP 2001-95586, Comparative Example)", "format": "cell-based", "settings": "treated with telomestatin (5 μm) for 48 hours, denatured DNA 0.5 μg, control C = 6800", "description": "as §2, §3, §4"}, "[5]": {"test_system": "90p normal mammary epithelial cell", "test": "Entire telomere length by telomere HPA on denatured DNA (JP 2001-95586, Comparative Example)", "format": "cell-based", "settings": "treated with telomestatin (5 μm) for 48 hours, denatured DNA 0.5 μg, control C = 3500", "description": "as §2, §3, §4"}, "[6]": {"test_system": "MCF-7 cancer cell", "test": "G tail length measurement by G tail HPA on nondenatured genomic DNA of treated cells", "format": "cell-based", "settings": "treated with telomestatin (5 μm) for 48 hours, nondenatured DNA 5 μg, control C = 212", "description": "as §1\n(§5) For the confirmation of nondenatured genomic DNA dose response by the measuring method according to the invention, SiHa cancer cell line-derived nondenatured genomic DNA samples in various amounts (1 μg, 3 μg, 5 μg, 10 μg and 20 μg) and the AE-labeled G tail HPA probe in an amount of 3×10^6 rlu were hybridized with each other. Specifically for detection of the telomere 3′-tail (G tail) in genomic DNA, the total amount of the DNA solution in a Falcon 352053 tube (trade name) was adjusted to 100 μL with sterile water or a TE buffer (10 mM Tris/HCl, 1 mM EDTA, pH 8.0). The AE-labeled G tail HPA probe in an amount of 3×10^6 rlu dissolved in 100-μL of the hybridization buffer was added to the DNA solution, and the mixture was stirred thoroughly with a Vortex mixer and incubated at 60° C. for 20 minutes. The hydrolysis of the AE in unhybridized probe and the detection of the chemiluminescence were performed under a condition similar to that in <1-2>.\n(§6) In the present invention, the nondenatured genomic DNA may not be isolated for use, but the nondenatured genomic DNA used in the confirmation test <4-1> was previously isolated in the following manner: The nondenatured genomic DNA used for G tail length measurement was isolated from each cell line by using the phenol-chloroform extraction method. Specifically, cells were centrifuged in an Eppendorf-micro centrifuge tube at 6,000 rpm and 4° C. for 5 minutes, to give a pellet in the microtube. The pellet was washed once with PBS(−) and resuspended in an extraction buffer containing 10 mM Tris buffer (pH 7.6), 150 mM NaCl and NP-40, to a final concentration of 0.5%. After proteinase K digestion, phenol-chloroform extraction was performed twice. The genomic DNA was precipitated with ethanol, treated with RNase A, and then, dissolved in a TE buffer. […]"}, "[7]": {"test_system": "HeLa cancer cell", "test": "G tail length measurement by G tail HPA on nondenatured genomic DNA of treated cells", "format": "cell-based", "settings": "treated with telomestatin (5 μm) for 48 hours, nondenatured DNA 5 μg, control C = 126", "description": "as §1, §5, §6"}, "[8]": {"test_system": "MRC-5-hTERT normal fibroblast", "test": "G tail length measurement by G tail HPA on nondenatured genomic DNA of treated cells", "format": "cell-based", "settings": "treated with telomestatin (5 μm) for 48 hours, nondenatured DNA 5 μg, control C = 96", "description": "as §1, §5, §6"}, "[9]": {"test_system": "90p normal mammary epithelial cell", "test": "G tail length measurement by G tail HPA on nondenatured genomic DNA of treated cells", "format": "cell-based", "settings": "treated with telomestatin (5 μm) for 48 hours, nondenatured DNA 5 μg, control C = 98", "description": "as §1, §5, §6"}, "[10]": {"test_system": "SiHa cancer cell", "test": "Entire telomere length by telomere HPA on denatured DNA (JP 2001-95586, Comparative Example)", "format": "cell-based, human", "settings": "treated with telomestatin (5 μm) for 48 hours, denatured DNA 0.5 μg, control C = 4500", "description": "as §2\nFIG. 11a is a graph showing the results of measuring G tail by the measuring method according to the invention. FIG. 11b is a graph showing the results of measuring the total telomere length by the measuring method described in Japanese Unexamined Patent Publication No. 2001-95586 as a Comparative Example. […]"}},
  "data": [
    {"smiles": "Cc1oc2nc1-c1nc(co1)-c1nc(co1)-c1nc(co1)-c1nc(co1)-c1nc(co1)C1=NC(CS1)c1nc-2c(C)o1", "note": "(stereo not shown) [telomestatin]", "values": [
      {"measurement": "Average G tail length (nt)", "setting": "[1]", "value": 121, "unit": "nt"},
      {"measurement": "Entire telomere length (nt)", "setting": "[2]", "value": 3900, "unit": "nt"},
      {"measurement": "Entire telomere length (nt)", "setting": "[3]", "value": 4600, "unit": "nt"},
      {"measurement": "Entire telomere length (nt)", "setting": "[4]", "value": 6750, "unit": "nt"},
      {"measurement": "Entire telomere length (nt)", "setting": "[5]", "value": 3450, "unit": "nt"},
      {"measurement": "Average G tail length (nt)", "setting": "[6]", "value": 162, "unit": "nt"},
      {"measurement": "Average G tail length (nt)", "setting": "[7]", "value": 89, "unit": "nt"},
      {"measurement": "Average G tail length (nt)", "setting": "[8]", "value": 96.5, "unit": "nt"},
      {"measurement": "Average G tail length (nt)", "setting": "[9]", "value": 96, "unit": "nt"},
      {"measurement": "Entire telomere length (nt)", "setting": "[10]", "value": 4600, "unit": "nt"}
    ]}
  ]
}
